{
  "source": "PubChem BioAssay AID540354",
  "about": "(Broad Institute, 2011)",
  "note": "The source made the active and inactive calls.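 The calls were made as follows: active = compounds lowering labeled HDL uptake signal, with AC50 at most ten times the top tested dose; inconclusive = flat partial inhibition between 30 and 70% or unreliable fit; inactive = the rest.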",
  "data": [
    {"tested_on": "not listed separately", "test": "SR-BI mediated HDL uptake inhibitors, dose response, ldlA[mSR-BI] CHO cells, dry powder samples (AID 540354)", "conditions": "ldlA[mSR-BI] CHO cells, DiI-HDL uptake fluorescence, 3 h; at 35 µM (top of the series)", "values": [
      {"compound": "C[C@H](CO)N1C[C@H](C)[C@H](CN(C)S(=O)(=O)c2ccc(F)cc2)Oc2ccc(NS(C)(=O)=O)cc2C1=O", "activity change, negative = inhibition": "-1.08% (inactive)"},
      {"compound": "C[C@H](CO)N1C[C@H](C)[C@H](CN(C)S(=O)(=O)c2ccc(F)cc2)Oc2ccc(NC(=O)Cc3ccccc3)cc2C1=O", "activity change, negative = inhibition": "-3.31% (inactive)"}
    ]},
    {"tested_on": "ldlA[mSR-BI] CHO cells, DiI-HDL uptake fluorescence, 3 h", "test": "SR-BI mediated HDL uptake inhibitors, dose response, ldlA[mSR-BI] CHO cells, dry powder samples (AID 540354)", "conditions": "not given", "values": [
      {"compound": "C[C@H](CO)N1C[C@H](C)[C@H](CN(C)S(=O)(=O)c2ccc(F)cc2)Oc2ccc(NC(=O)CCC(F)(F)F)cc2C1=O", "AC50": "> 35000 nM (inactive)"},
      {"compound": "COc1ccc([C@H]2CC(=O)C=C(c3cccc4c3sc3ccccc34)C2)cc1OC", "AC50": "208 nM"},
      {"compound": "C[C@H]1CN([C@@H](C)CO)C(=O)c2cccc(N(C)C)c2O[C@@H]1CN(C)Cc1ccc(Cl)c(Cl)c1", "AC50": "42400 nM"},
      {"compound": "CCOc1ccccc1/C=C/c1onc(C)c1S(=O)(=O)N1CCC(C(=O)NC(C)(C)C)CC1", "AC50": "77 nM"},
      {"compound": "C[C@@H]1CN([C@H](C)CO)C(=O)c2cc(NC(=O)Cc3cn(C)c4ccccc34)ccc2O[C@H]1CN(C)S(=O)(=O)c1ccc(Cl)cc1", "AC50": "454 nM"},
      {"compound": "Cc1cc(C)n(CC(=O)NC2CCCc3c2cnn3-c2ccc(C)c(C)c2)n1", "note": "(stereo not drawn)", "AC50": "376 nM"},
      {"compound": "COc1cccc(-c2csc(N3CCN(C(=S)Nc4cccc(Cl)c4)CC3)n2)c1", "AC50": "1890 nM"},
      {"compound": "CNC[C@@H]1Oc2ccc(NC(=O)Cc3cn(C)c4ccccc34)cc2C(=O)N([C@H](C)CO)C[C@H]1C", "AC50": "48000 nM"},
      {"compound": "C[C@H](CO)N1C[C@H](C)[C@@H](CN(C)S(=O)(=O)c2ccc(F)cc2)Oc2ccc(NC(=O)Cc3cn(C)c4ccccc34)cc2C1=O", "AC50": "38500 nM"},
      {"compound": "COc1ccc(OC)c(CCNC(=O)c2ccc3c(c2)N(Cc2ccc(F)cc2)CCS3)c1", "AC50": "559 nM"},
      {"compound": "C[C@H]1CN([C@@H](C)CO)C(=O)c2cccc(NC(=O)Nc3ccccc3)c2O[C@@H]1CN(C)Cc1ccc(C(F)(F)F)cc1", "AC50": "28000 nM"},
      {"compound": "COC(=O)c1cn(C(=O)c2cccc3ccccc23)c2ccccc12", "AC50": "3610 nM"},
      {"compound": "O=C(Nc1ccc(-c2nc3cc(NC(=O)c4ccc(NC(=O)c5cccc6ccccc56)cc4)ccc3[nH]2)cc1)c1ccc(NC(=O)c2cccc3ccccc23)cc1", "AC50": "< 15 nM"},
      {"compound": "CCOc1ccc(NC(=O)CN2CCN(CC(=O)Nc3cc(OC)cc(OC)c3)CC2)cc1", "AC50": "< 30 nM"},
      {"compound": "CC(C)NC(=O)Nc1cccc2c1O[C@H](CN(C)Cc1ccc(Cl)c(Cl)c1)[C@@H](C)CN([C@@H](C)CO)C2=O", "AC50": "1050 nM"},
      {"compound": "Cc1ccc2oc(-c3cccc(NC(=O)c4cc(-n5cnnc5)ccc4Cl)c3)nc2c1", "AC50": "593 nM"},
      {"compound": "Cc1ccc(-c2nnc(N3CCC(C)CC3)c3ccccc23)cc1C", "AC50": "197 nM"},
      {"compound": "O=C(Nc1ccc(-c2nc3cc(NC(=O)c4ccccc4Cl)ccc3o2)cc1)c1ccccc1Cl", "AC50": "16 nM"},
      {"compound": "C[C@@H]1CN([C@H](C)CO)C(=O)c2cc(NC(=O)Cc3cn(C)c4ccccc34)ccc2O[C@H]1CN(C)S(C)(=O)=O", "AC50": "18200 nM"},
      {"compound": "C[C@H]1CN([C@@H](C)CO)C(=O)c2cccc(NC(=O)Nc3ccccc3)c2O[C@@H]1CN(C)C", "AC50": "17300 nM"},
      {"compound": "O=C(Nc1ccccc1)c1ccccc1NS(=O)(=O)c1ccc(Cl)cc1", "AC50": "47800 nM"},
      {"compound": "Nc1ccc(C(=O)Nc2ccc(-c3nc4ccc(NC(=O)c5ccc(N)cc5)cc4[nH]3)cc2)cc1", "AC50": "813 nM"},
      {"compound": "O=C(Nc1ccc(Cl)cc1C(=O)c1ccc(Cl)cc1)c1cc(Br)ccc1NS(=O)(=O)c1ccc(Cl)cc1", "AC50": "494 nM"},
      {"compound": "O=C(Nc1cccc(NC(=O)c2cc([N+](=O)[O-])ccc2Cl)n1)c1cc([N+](=O)[O-])ccc1Cl", "AC50": "1960 nM"},
      {"compound": "COc1ccc(-c2nnn(CC(=O)N(C3CCCCC3)C(C)C(=O)NC3CCCC3)n2)cc1OC", "note": "(stereo not drawn)", "AC50": "28 nM"},
      {"compound": "O=C(Nc1ccc(-c2nc3ccc(NC(=O)c4ccccc4)cc3[nH]2)cc1)c1ccccc1", "AC50": "526 nM"},
      {"compound": "C[C@@H]1CN([C@H](C)CO)C(=O)c2cc(NC(=O)Cc3cn(C)c4ccccc34)ccc2O[C@H]1CN(C)S(=O)(=O)c1ccccc1", "AC50": "1290 nM"},
      {"compound": "CCC(=O)N1CCc2cc(-c3csc(NC(=O)c4ccco4)n3)ccc21", "AC50": "17 nM"},
      {"compound": "O=C(Nc1ccc(-c2nc3ccc(NC(=O)c4ccccc4[N+](=O)[O-])cc3[nH]2)cc1)c1ccccc1[N+](=O)[O-]", "AC50": "251 nM"},
      {"compound": "O=C(Nc1cc(Cl)ccc1Cl)c1cc(Br)ccc1NS(=O)(=O)c1ccc(Cl)c([N+](=O)[O-])c1", "AC50": "426 nM"},
      {"compound": "O=C(Nc1ccc(-c2nc3cc(NC(=O)c4ccccc4[N+](=O)[O-])ccc3o2)cc1)c1ccccc1[N+](=O)[O-]", "AC50": "< 15 nM"},
      {"compound": "CCc1sc(N2C(=O)C3C4CCC(C4=C(C)C)C3C2=O)nc1-c1ccccc1", "note": "(stereo not drawn)", "AC50": "754 nM"},
      {"compound": "C[C@@H]1CN([C@@H](C)CO)C(=O)c2cc(NC(=O)Cc3cn(C)c4ccccc34)ccc2O[C@H]1CN(C)S(=O)(=O)c1ccc(F)cc1", "AC50": "2190 nM"},
      {"compound": "O=C(Nc1ccccc1Cl)c1ccccc1NS(=O)(=O)c1ccccc1", "AC50": "33300 nM"},
      {"compound": "CCc1cc2cc3c(cc2nc1SCC(=O)OC(C)C)OCO3", "AC50": "79 nM"},
      {"compound": "N#Cc1sc2nc(C3CC3)cc(-c3ccc(Cl)cc3)c2c1N", "AC50": "1640 nM"},
      {"compound": "O=C(Nc1cc(Cl)ccc1Cl)c1cc(Cl)ccc1NS(=O)(=O)c1ccc(Cl)c([N+](=O)[O-])c1", "AC50": "444 nM"},
      {"compound": "Cc1ccccc1NC(=O)NCC1CCN(c2ccc(S(=O)(=O)N3CCOCC3)cc2)CC1", "AC50": "262 nM"},
      {"compound": "CC(C)OCCCNC(=O)c1ccc(C2SCC(=O)N2Cc2ccco2)cc1", "note": "(stereo not drawn)", "AC50": "1380 nM"},
      {"compound": "Cc1cc(C)c2c(c1)NC(c1cc3c(cc1Br)OCO3)C1CC=CC21", "note": "(stereo not drawn)", "AC50": "505 nM"},
      {"compound": "Cc1cc(SC(C)C(=O)Nc2ncc(Cl)cc2Cl)nc2ccccc12", "note": "(stereo not drawn)", "AC50": "491 nM"},
      {"compound": "CCOC(=O)Nc1cccc(NC(=O)c2cc(OC)cc(OC)c2)c1", "AC50": "546 nM"},
      {"compound": "O=C(Nc1ccc(-c2nc3ccc(NC(=O)c4ccc(Cl)cc4)cc3[nH]2)cc1)c1ccc(Cl)cc1", "AC50": "< 15 nM"},
      {"compound": "CCn1c(COc2c(C)cccc2C)nnc1SCC(=O)N1CCN(c2ccccc2)CC1", "AC50": "2790 nM"},
      {"compound": "Cc1cc(C(=O)C(C)OC(=O)C2=NNC(=O)CC2)c(C)n1-c1ccc(OC(F)F)cc1", "note": "(stereo not drawn)", "AC50": "1300 nM"},
      {"compound": "C[C@H]1CN([C@@H](C)CO)C(=O)c2cccc(NC(=O)Nc3ccc(F)cc3)c2O[C@@H]1CN(C)Cc1ccc(Cl)c(Cl)c1", "AC50": "1390 nM"},
      {"compound": "CC(C)(C)NC(=O)N1CCN(c2ncccc2C(F)(F)F)CC1", "AC50": "292 nM"},
      {"compound": "C[C@@H]1CN([C@H](C)CO)C(=O)c2cc(NC(=O)Cc3cn(C)c4ccccc34)ccc2O[C@H]1CN(C)C(=O)Nc1ccc(F)cc1", "AC50": "3290 nM"},
      {"compound": "O=C(Nc1cc(C(F)(F)F)ccc1Cl)c1ccccc1NS(=O)(=O)c1ccc(Cl)cc1", "AC50": "1380 nM"},
      {"compound": "CCOC(=O)N1CCC(NC(=O)c2ccc3c(c2)N(Cc2ccc(F)cc2)CCS3)CC1", "AC50": "32 nM"},
      {"compound": "C[C@H]1CN([C@@H](C)CO)C(=O)c2cccc(NC(=O)Nc3ccccc3)c2O[C@@H]1CN(C)Cc1ccccc1", "AC50": "13400 nM"},
      {"compound": "C[C@H]1CN([C@@H](C)CO)C(=O)c2cccc(NS(C)(=O)=O)c2O[C@@H]1CN(C)Cc1ccc(Cl)c(Cl)c1", "AC50": "19400 nM"},
      {"compound": "CC(OC(=O)c1cccc(NS(C)(=O)=O)c1)C(=O)Nc1ccc(N2CCOCC2)cc1", "note": "(stereo not drawn)", "AC50": "335 nM"},
      {"compound": "C[C@@H]1CN([C@H](C)CO)C(=O)c2cc(NC(=O)Cc3cn(C)c4ccccc34)ccc2O[C@H]1CN(C)S(=O)(=O)c1ccc(F)cc1", "AC50": "1090 nM"},
      {"compound": "C[C@@H]1CN([C@H](C)CO)C(=O)c2cc(NC(=O)Cc3cn(C)c4ccccc34)ccc2O[C@@H]1CN(C)S(=O)(=O)c1ccc(F)cc1", "AC50": "25700 nM"},
      {"compound": "C[C@H]1CN([C@@H](C)CO)C(=O)c2cccc(NC(=O)Nc3ccccc3)c2O[C@@H]1CN(C)Cc1ccc(Cl)c(Cl)c1", "AC50": "1500 nM"}
    ]}
  ]
}
